Legend:
[1] = Liquid; for viscosity: 101 kPa; for mass density: 101.33 kPa, Pycnometric method
[2] = xn = mol fraction of the nth substance listed; conditions: 101 kPa, Liquid

NC=O [formamide]
[1]
Conditions	mass density [kg/m3]	viscosity [mPa·s]
303.15 K	1124.57	2.877
308.15 K	1120.19	2.544
313.15 K	1115.22	2.356
318.15 K	1110.95	2.061
323.15 K	1105.47	1.835

COCCO [2-methoxyethan-1-ol]
[1]
Conditions	mass density [kg/m3]	viscosity [mPa·s]
303.15 K	955.72	1.421
308.15 K	951.11	1.249
313.15 K	946.27	1.173
318.15 K	941.64	1.079
323.15 K	936.88	0.9347

NC=O [formamide] + COCCO
viscosity [mPa·s], [2]
Conditions	x1 = 0.1785	x1 = 0.2723	x1 = 0.3849	x1 = 0.4862	x1 = 0.5726	x1 = 0.6651	x1 = 0.7492	x1 = 0.8363	x1 = 0.9138	x1 = 1
303.15 K	1.795	1.993	2.237	2.47	2.665	2.849	2.927	2.968	2.965	2.877
308.15 K	1.573	1.749	1.966	2.158	2.322	2.504	2.593	2.614	2.609	2.544
313.15 K	1.453	1.623	1.813	1.988	2.131	2.264	2.323	2.361	2.36	2.356
318.15 K	1.313	1.46	1.626	1.769	1.885	1.988	2.046	2.07	2.057	2.061
323.15 K	1.129	1.27	1.421	1.566	1.661	1.75	1.806	1.842	1.83	1.835
